Data on 1 compound can be found in patent EP1263429B1, “ANTIVIRAL THERAPY” (Universiteit Utrecht, priority 2000, dated 2001).

In data set [1] the test system is Monocyte-derived macrophages (MDM). Format: cell-based, human. Here is the method: Cell viability is assessed by the MTT assay. In short, cells are incubated with MTT 3-(4,5-dimethylthiazol-2-yl)-2,5-diphenyltetrazollumbromide (Sigma) for 2 hours at 37 °C. During this time viable cells convert MTT into […] formazan dyes. Afterwards crystals are solubilised with a solution containing isopropanol. The OD of the supernatant is measured at 550 nm.
Monocyte-derived macrophages (MDM) were obtained like described above. MDM were then washed twice and cultured for 4 to 7 days in different concentrations of APHS. After a 4 days incubation period cellular viability was assessed by MTT cytotoxicity assay where viable cells convert MTT into a colored formazan dye that can be measured spectrophotometrically.
• Fig. 1 - Plasmids that are used for studies on the effect of compounds on HIV promotor activity. • Fig. 2 - Peripheral blood mononuclear cells (PBMC) were isolated from heparinized blood from HIV-1-, HIV-2-, and hepatitis B-seronegative donors and obtained on Ficoll-Hypaque density gradients. PBMC were washed twice and monocytes were purified by countercurrent centrifugal elutriation. […] After 4 and 5 days of incubation samples of culture supernatant were collected and p24-core antigen production was quantified using the enzyme-linked immunosorbent assay (ELISA) system of John Moore. […]

The test system of the next data set is HIV-1. The data set is described as follows: IC50 determination of an anti-viral (Table 3). Format: cell-based. Conditions: Human immunodeficiency virus 1.

Usually IC50 stands for the concentration that inhibits the measured activity by half. The low end stands for higher potency, the high end for lower potency. Take `CCCCC#CCSc1ccccc1OC(C)=O` [APHS, o-(acetoxy-phenyl)hept-2-ynyl sulphide]: in data set [1], the “cytotoxicity (cellular viability, MTT)” value is given as “None of the tested concentrations of APHS was found to be cytotoxic”. This compound showed an IC50 in the data set with HIV-1 of 10 µM.
